{
  "source": "paper PMC10412585",
  "about": "(Nature Communications, 2023)",
  "key": {"CD94/NKG2A [1]": {"target": "T1, CD94/NKG2A (Homo sapiens, UniProt P26715+Q13241)", "T1 construct": "The C-terminus of human NKG2A or NKG2C ectodomain was connected via a GGSGGS linker to human CD94 ectodomain; AviTag biotinylation tag (C); poly-histidine tag (C); made in house; host or cells: baculovirus, High Five (Hi5) insect cells", "T1 sequence (Q13241 whole entry, looked up, the tested form may be a part)": "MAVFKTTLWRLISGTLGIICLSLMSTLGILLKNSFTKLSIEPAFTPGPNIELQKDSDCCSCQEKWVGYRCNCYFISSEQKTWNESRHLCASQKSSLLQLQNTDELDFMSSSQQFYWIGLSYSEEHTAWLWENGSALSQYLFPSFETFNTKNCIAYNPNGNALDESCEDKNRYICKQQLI", "T1 sequence (P26715 whole entry, looked up, the tested form may be a part)": "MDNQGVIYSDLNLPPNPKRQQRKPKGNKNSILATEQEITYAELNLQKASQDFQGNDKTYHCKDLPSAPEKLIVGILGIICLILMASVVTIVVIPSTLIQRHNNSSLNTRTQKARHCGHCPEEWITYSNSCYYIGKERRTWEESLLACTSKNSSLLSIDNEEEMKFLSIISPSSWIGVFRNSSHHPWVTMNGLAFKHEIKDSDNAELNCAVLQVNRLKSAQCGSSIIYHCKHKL", "experiment": "CD94/NKG2A tetramer staining of yeast-displayed peptide-HLA-E", "format": "binding", "details": "yeast-displayed single chain trimer, 500 nM tetramer, 2 h, 4 °C, flow cytometry", "description": "(§1) To study the diversity of the HLA-E peptide repertoire recognized by CD94/NKG2x, we adapted an MHC yeast surface display system previously used to study class Ia MHC-restricted TCR recognition[25],[26]. In this system, peptide, Beta-2-microglobulin (β2M), and MHC heavy chain are covalently linked to each other and fused to the N-terminus of the yeast mating factor protein Aga2p (Fig. 1A, B). The HLA-E single chain trimer construct expressed well on the yeast surface, as confirmed via staining for an included hemagglutinin (HA) epitope tag and via an anti-HLA-E antibody (Fig. 1C). Since epitope tag staining assesses construct expression rather than protein fold[27]–[29], we tested peptide-HLA-E (pHLA-E) fold by staining with its cognate NK receptors. […] (Supplemental Fig. 1A, E–G), though both receptors were able to bind and enable selective enrichment of […]/HLA-E-expressing yeast using avid streptavidin-coated beads (Supplemental Fig. 1B–D).\n(§2) To stain peptide-HLA-E (pHLA-E) with CD94/NKG2x tetramers, each biotinylated receptor was mixed with streptavidin coupled to AlexaFluor647 (SAV-647, made in-house) at a 5:1 ratio and incubated for 5 min on ice. Yeast were stained with 500 nM tetramer for 2 h at 4 °C in the dark with rotation. […]"}, "CD94/NKG2C": {"test_system": "CD94/NKG2C", "experiment": "CD94/NKG2C tetramer and dextramer staining of yeast-displayed peptide-HLA-E", "format": "binding, human", "details": "yeast-displayed single chain trimer, 500 nM tetramer, 2 h, 4 °C, flow cytometry", "description": "as §1, §2"}, "HLA-E": {"test_system": "HLA-E", "experiment": "HLA-E surface stabilization assay with RMA-S/HLA-E cells", "format": "cell-based, human", "details": "peptide 3-300 µM (Fig. 3: 30 µM) in OptiMEM, 16 h, 37 °C, anti-HLA-E 3D12, flow cytometry, n = 4 replicate experiments"}, "CD94/NKG2A [2]": {"target": "T1, CD94/NKG2A", "experiment": "Steady-state SPR of peptide-HLA-E single chain trimers with CD94/NKG2A", "format": "binding", "details": "SPR with CD94/NKG2A and CD94/NKG2C, Fig. 5B; taken as lower stability of the peptide-HLA-E complex", "protocol": "Specifically, we measured CD94/NKG2A and CD94/NKG2C affinity for HLA-E complexed with three sets of peptides. […] Third, we included […] peptide as a positive control.\nSteady-state surface plasmon resonance experiments were performed with a Biacore T200 instrument. CD94/NKG2x in HBS-EP+ buffer was injected as analyte in a concentration range of 0.1 μM to 102.4 μM and flow rate of 10 μL/min at 25 °C. Data was fit with Prism 9.4 (GraphPad Software Inc; San Diego CA) to a “one site, specific binding” model. Sensorgrams are included in Supplemental Fig. 13.\nFor investigating WN peptides, biotinylated pMHC was immobilized at approximately 400 Response Units (RU) on a Series S SA sensor chip (Cytiva). […] CD94/NKG2A was injected followed by CD94/NKG2C.\nFor investigating human-derived peptides, Series S CM5 chips (Cytiva) were coupled to neutravidin and utilized. Biotinylated pMHC was immobilized at approximately 400 RU. On one chip, […] CD94/NKG2A was injected followed by CD94/NKG2C. On a second chip, PISD55-63 HLA-E SCT, AKAP6_388-396 HLA-E SCT, GTF3C5_293-301 HLA-E SCT, and reference HLA-DR401 were immobilized. CD94/NKG2C was injected followed by CD94/NKG2A. Rmax, fit values were calculated by Biacore software. Rmax, theoretical values were calculated using the analyte/ligand mass ratio (0.66) multiplied by the amount of ligand coupled to the chip."}},
  "data": [
    {"sequence": "VMAPRTLFL [positive control]", "values": [
      {"measurement": "CD94/NKG2A tetramer staining", "setting": "CD94/NKG2A [1]", "value": "positively stained cells"},
      {"measurement": "CD94/NKG2C tetramer and dextramer staining", "setting": "CD94/NKG2C", "value": "minimal signal"}
    ]},
    {"sequence": "VNPGRSLFL [BFAR263-271, human peptide from Bifunctional apoptosis regulator]", "values": [
      {"measurement": "stabilization of HLA-E surface expression", "setting": "HLA-E", "value": "weak but detectable stabilization"},
      {"measurement": "maximal response units (Rmax) compared to theoretical maximum", "setting": "CD94/NKG2A [2]", "value": "lower maximal values compared to the theoretical maximum"}
    ]}
  ]
}
